According to ChEMBL document CHEMBL1649161, “Pharmacokinetics of EDP-420 after ascending single oral doses in healthy adult volunteers” (Antimicrob Agents Chemother, 2009):

Tests used:
Assay type in all cases: ADME, organism-based
[1] = AUC (0 to infinity) in healthy human at 500 mg, po administered as single dose; set-up: dose 500 mg, route oral, time infinity; details: plasma
[2] = Terminal half life in healthy human at 500 mg, po administered as single dose; details: in vivo
[3] = Half life in healthy human at 400 mg, po administered as single dose; details: in vivo
[4] = AUC (0 to infinity) in healthy human at 400 mg, po administered as single dose; set-up: dose 400 mg, time infinity, route oral; details: plasma
[5] = Cmax in healthy human at 400 mg, po administered as single dose; set-up: dose 400 mg, route oral; details: in vivo
[6] = Cmax in healthy human at 500 mg, po administered as single dose; set-up: dose 500 mg, route oral; details: in vivo
[7] = Distribution half life in healthy human at 400 mg, po administered as single dose; details: in vivo
[8] = Terminal half life in healthy human at 400 mg, po administered as single dose; details: in vivo

Compound | AUC(0-inf) [1] | AUC(0-inf) [4] | Cmax [5] | also measured
CC[C@H]1OC(=O)[C@H](C)[C@@H](O[C@H]2C[C@@](C)(OC)[C@@H](O)[C@H](C)O2)[C@H](C)[C@@H](O[C@@H]2O[C@H](C)C[C@H](N(C)C)[C@H]2O)[C@](C)(O)C[C@@H](C)CN(C)[C@H](C)[C@@H](O)[C@]1(C)O [AZITHROMYCIN] | 3390 ng·h/mL | – | – | half-life [2]: 35 h
CC[C@H]1OC(=O)[C@H](C)[C@@H](O[C@H]2C[C@@](C)(OC)[C@@H](O)[C@H](C)O2)[C@H](C)[C@@H](O[C@@H]2O[C@H](C)C[C@H](N(C)C)[C@H]2O)[C@](C)(OC)C[C@@H](C)C(=O)[C@H](C)[C@@H](O)[C@]1(C)O [CLARITHROMYCIN] | – | 7520 ng·h/mL | 780 ng/mL | half-life [3]: 3.89 h
CC[C@H]1OC(=O)[C@H](C)[C@@H](O[C@H]2C[C@@](C)(OC)[C@@H](O)[C@H](C)O2)[C@H](C)[C@@H](O[C@@H]2O[C@H](C)C[C@H](N(C)C)[C@H]2O)[C@](C)(O)C[C@@H](C)C(=O)[C@H](C)[C@@H](O)[C@]1(C)O [ERYTHROMYCIN] | 7700 ng·h/mL | – | – | Cmax [6]: 2000 ng/mL
CC[C@H]1OC(=O)[C@H](C)C(=O)[C@H](C)[C@@H](O[C@@H]2O[C@H](C)C[C@H](N(C)C)[C@H]2O)[C@](C)(OC)C[C@@H](C)C(=O)[C@H](C)[C@H]2N(CCCCn3cnc(-c4cccnc4)c3)C(=O)O[C@]12C [TELITHROMYCIN] | – | 3090 ng·h/mL | 800 ng/mL | half-life [7]: 2.13 h; half-life [8]: 6.68 h
